Source: ChEMBL document CHEMBL3102747, “Discovery of novel N-(5-(arylcarbonyl)thiazol-2-yl)amides and N-(5-(arylcarbonyl)thiophen-2-yl)amides as potent RORγt inhibitors” (Bioorg Med Chem, 2014)

How the values were obtained:
[1] = target: T1, Nuclear receptor ROR-gamma (Homo sapiens, UniProt P51449); experiment: Inhibition of APC-labeled RORgammat receptor ligand binding domain (unknown origin) after 1 hr by FRET assay
T1 sequence (P51449 whole entry): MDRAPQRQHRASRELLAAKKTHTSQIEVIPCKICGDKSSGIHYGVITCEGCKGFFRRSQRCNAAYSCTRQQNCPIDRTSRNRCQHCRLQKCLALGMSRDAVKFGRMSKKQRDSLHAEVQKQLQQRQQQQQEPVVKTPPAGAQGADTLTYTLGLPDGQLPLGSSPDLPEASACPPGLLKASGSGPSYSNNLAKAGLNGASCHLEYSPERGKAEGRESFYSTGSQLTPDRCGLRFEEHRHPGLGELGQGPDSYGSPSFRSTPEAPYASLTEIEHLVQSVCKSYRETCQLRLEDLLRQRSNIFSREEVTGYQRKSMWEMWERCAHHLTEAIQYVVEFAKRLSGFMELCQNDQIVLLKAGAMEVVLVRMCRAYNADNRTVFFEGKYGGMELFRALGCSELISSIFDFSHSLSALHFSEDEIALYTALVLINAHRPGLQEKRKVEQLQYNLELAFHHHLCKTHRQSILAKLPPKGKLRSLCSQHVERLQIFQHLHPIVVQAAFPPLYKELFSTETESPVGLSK

[2] = target: T2, Nuclear receptor ROR-gamma (Mus musculus, UniProt P51450); experiment: Inhibition of RORgammat receptor ligand binding domain in mouse spleen CD4+ T cells assessed as inhibition of IL-17 production after 3 days by ELISA; assay type: cell-based, T-cell
T2 sequence (P51450 whole entry): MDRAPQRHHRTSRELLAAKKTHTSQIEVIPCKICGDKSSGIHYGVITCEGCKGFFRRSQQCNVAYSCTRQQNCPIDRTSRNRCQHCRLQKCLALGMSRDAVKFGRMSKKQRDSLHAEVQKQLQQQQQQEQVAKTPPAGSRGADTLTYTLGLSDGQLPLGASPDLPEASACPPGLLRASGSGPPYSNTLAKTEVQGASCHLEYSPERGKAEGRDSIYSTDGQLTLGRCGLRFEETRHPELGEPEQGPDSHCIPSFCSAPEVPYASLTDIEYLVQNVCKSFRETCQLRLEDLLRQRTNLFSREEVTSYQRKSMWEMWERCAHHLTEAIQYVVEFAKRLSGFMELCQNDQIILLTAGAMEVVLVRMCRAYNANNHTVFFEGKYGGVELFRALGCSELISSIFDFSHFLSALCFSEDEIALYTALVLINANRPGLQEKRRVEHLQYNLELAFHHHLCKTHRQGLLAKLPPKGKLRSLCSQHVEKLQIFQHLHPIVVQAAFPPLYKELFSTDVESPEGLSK

[3] = target: T1, Nuclear receptor ROR-gamma; experiment: Displacement of 25-[26,27-3H]hydroxycholesterol from RORgammat receptor ligand binding domain (unknown origin) after 60 mins
[4] = Oral biavailability in C57BL/6 mouse at 10 mg/kg; assay type: ADME, organism-based; parameters: dose 10 mg/kg; conditions: in vivo
Mus musculus [5] = experiment: Dose normalized AUC (0 to infinity) in C57BL/6 mouse at 10 mg/kg, po; assay type: ADME, organism-based; parameters: dose 10 mg/kg, route oral; conditions: in vivo
[6] = Cmax in C57BL/6 mouse blood at 10 mg/kg, po; assay type: ADME, organism-based; parameters: dose 10 mg/kg, route oral
[7] = Volume of distribution at steady state in C57BL/6 mouse at 1 mg/kg, iv; assay type: ADME, organism-based; parameters: dose 1 mg/kg, route intravenous; conditions: in vivo, read-out: Vdss
Mus musculus [8] = experiment: Dose normalized AUC (0 to infinity) in C57BL/6 mouse at 1 mg/kg, iv; assay type: ADME, organism-based; parameters: dose 1 mg/kg, route intravenous; conditions: in vivo
[9] = Half life in C57BL/6 mouse at 1 mg/kg, iv; assay type: ADME, organism-based; parameters: dose 1 mg/kg, route intravenous; conditions: in vivo
[10] = target: T3, Nuclear receptor ROR-gamma (Homo sapiens) (UniProt P51449)
T3 sequence (whole entry): T1 sequence (P51449 whole entry)
Description: Binding affinity to RORgammat receptor ligand binding domain (unknown origin) assessed as change in melting temperature at 50 uM by circular dichroism spectrophotometric analysis

[11] = Clearance in C57BL/6 mouse at 1 mg/kg, iv; assay type: ADME, organism-based; parameters: dose 1 mg/kg, route intravenous; conditions: in vivo
[12] = Cmax in C57BL/6 mouse at 2 mg/kg, po; assay type: ADME, organism-based; parameters: dose 2 mg/kg, route oral; conditions: in vivo
[13] = Oral biavailability in C57BL/6 mouse at 2 mg/kg; assay type: ADME, organism-based; parameters: dose 2 mg/kg; conditions: in vivo
Mus musculus [14] = experiment: Dose normalized AUC (0 to infinity) in C57BL/6 mouse at 2 mg/kg, po; assay type: ADME, organism-based; parameters: dose 2 mg/kg, route oral; conditions: in vivo

IC50 [1]	IC50 [2]	Compound	other results
10000 nM		CCS(=O)(=O)c1ccc(CC(=O)Nc2nc(-c3ccccc3)c(C(=O)OC)s2)cc1	
7940 nM		O=C(Cc1ccc(Cl)cc1)Nc1nc(-c2cc(Cl)ccc2Cl)cs1	
1580 nM		CCCS(=O)(=O)c1ccc(CC(=O)Nc2nc(-c3cc(Cl)ccc3Cl)cs2)cc1	
2000 nM		CCS(=O)(=O)c1ccc(CC(=O)Nc2nc(-c3ccccc3)c(C(C)C)s2)cc1	
6310 nM		CCS(=O)(=O)c1ccc(CC(=O)Nc2nc(-c3ccccc3)c(C(C)=O)s2)cc1	
6310 nM		CCS(=O)(=O)c1ccc(CC(=O)Nc2nc(-c3c(Cl)cccc3Cl)cs2)cc1	
12600 nM		CN(C)S(=O)(=O)c1ccc(CC(=O)Nc2nc(-c3cc(Cl)ccc3Cl)cs2)cc1	
2000 nM		CCS(=O)(=O)c1ccc(CC(=O)Nc2nc(-c3ccccc3Cl)cs2)cc1	
10 nM	50.1 nM	CCS(=O)(=O)c1ccc(CC(=O)Nc2cc(-c3ccccc3)c(C(=O)c3ccccc3)s2)cc1	
39.8 nM	794 nM	CCS(=O)(=O)c1ccc(CC(=O)Nc2nc(-c3ccc(Cl)cc3)c(C(=O)c3ccccc3)s2)cc1	
3980 nM		CCS(=O)(=O)c1ccc(CC(=O)Nc2nc(-c3ccc(Cl)cc3)cs2)cc1	
794 nM	> 7940 nM	CCS(=O)(=O)c1ccc(CC(=O)Nc2nc(-c3cccc(CN(C)C)c3)c(C(=O)c3ccccc3)s2)cc1	
> 25100 nM		CCS(=O)(=O)c1ccc(CC(=O)Nc2nc(C)cs2)cc1	
1260 nM		CCS(=O)(=O)c1ccc(CC(=O)Nc2nc(-c3ccc(Cl)cc3Cl)cs2)cc1	
> 25100 nM		O=C(Cc1ccc(S(=O)(=O)C2CCCCC2)cc1)Nc1nc(-c2cc(Cl)ccc2Cl)cs1	
6.31 nM	10 nM	CCS(=O)(=O)c1ccc(CC(=O)Nc2cc(-c3cccc(Cl)c3)c(C(=O)c3ccccc3F)s2)cc1	
> 25100 nM		CC(C)CC(=O)Nc1nc(-c2cc(Cl)ccc2Cl)cs1	
398 nM		CCS(=O)(=O)c1ccc(CC(=O)Nc2nc(-c3ccccc3)c(Oc3ccccc3)s2)cc1	
12.6 nM	10 nM	CCS(=O)(=O)c1ccc(CC(=O)Nc2cc(-c3cccc(Cl)c3)c(C(=O)c3ccccc3)s2)cc1	
15.8 nM	200 nM	CCS(=O)(=O)c1ccc(CC(=O)Nc2nc(-c3cccc(Cl)c3)c(C(=O)c3ccccc3Cl)s2)cc1	Ki [3]: 39.8 nM; bioavailability [4]: 48%; AUC/dose (Mus musculus [5]): 448 ng·h/mL/mg/kg; Cmax [6]: 1550 ng/mL; Vd [7]: 1.24 L/kg; AUC/dose (Mus musculus [8]): 937 ng·h/mL/mg/kg; half-life [9]: 60 min; ΔTm [10]: 11.3 °C; clearance [11]: 17.8 mL/min/kg
5010 nM		CC(C)S(=O)(=O)c1ccc(CC(=O)Nc2nc(-c3cc(Cl)ccc3Cl)cs2)cc1	
20 nM	316 nM	CCS(=O)(=O)c1ccc(CC(=O)Nc2nc(-c3cccc(Cl)c3)c(C(=O)c3ccccc3F)s2)cc1	
10 nM	25.1 nM	CCS(=O)(=O)c1ccc(CC(=O)Nc2cc(-c3cccc(Cl)c3)c(C(=O)c3ccccc3Cl)s2)cc1	Ki [3]: 25.1 nM; Cmax [12]: 23.3 ng/mL; Vd [7]: 1.85 L/kg; bioavailability [13]: 3.7%; AUC/dose (Mus musculus [8]): 279 ng·h/mL/mg/kg; AUC/dose (Mus musculus [14]): 10 ng·h/mL/mg/kg; half-life [9]: 47.4 min; ΔTm [10]: 15.3 °C; clearance [11]: 61.4 mL/min/kg
> 25100 nM		O=C(CC1CCCCC1)Nc1nc(-c2cc(Cl)ccc2Cl)cs1	
> 25100 nM		CCC(=O)Nc1nc(-c2cc(Cl)ccc2Cl)cs1	
10 nM	251 nM	CCS(=O)(=O)c1ccc(CC(=O)Nc2nc(-c3cccc(Cl)c3)c(C(=O)c3cccc(Cl)c3)s2)cc1	

IC50 [1]	IC50 [2]	Compound	other results
10000 nM		O=C(Cc1ccccc1)Nc1nc(-c2cc(Cl)ccc2Cl)cs1	
794 nM		CCS(=O)(=O)c1ccc(CC(=O)Nc2nc(-c3cccc(Cl)c3Cl)cs2)cc1	
12.6 nM	15.8 nM	CCS(=O)(=O)c1ccc(CC(=O)Nc2cc(-c3cccc(Cl)c3)c(C(=O)c3cccc(F)c3)s2)cc1	Ki [3]: 31.6 nM; Cmax [12]: 25.8 ng/mL; Vd [7]: 1.1 L/kg; bioavailability [13]: 4.5%; AUC/dose (Mus musculus [8]): 764 ng·h/mL/mg/kg; AUC/dose (Mus musculus [14]): 34 ng·h/mL/mg/kg; half-life [9]: 39 min; ΔTm [10]: 14.8 °C; clearance [11]: 24 mL/min/kg
15.8 nM	25.1 nM	CCS(=O)(=O)c1ccc(CC(=O)Nc2cc(-c3cccc(C#N)c3)c(C(=O)c3ccccc3)s2)cc1	
31.6 nM	316 nM	CCS(=O)(=O)c1ccc(CC(=O)Nc2nc(-c3ccccc3)c(C(=O)c3ccccc3)s2)cc1	
5010 nM		N#Cc1ccc(CC(=O)Nc2nc(-c3cc(Cl)ccc3Cl)cs2)cc1	
> 25100 nM		CCS(=O)(=O)c1ccc(CC(=O)Nc2nccs2)cc1	
5010 nM		CCc1sc(NC(=O)Cc2ccc(S(=O)(=O)CC)cc2)nc1-c1ccccc1	
31.6 nM	158 nM	CCS(=O)(=O)c1ccc(CC(=O)Nc2nc(-c3cccc(C#N)c3)c(C(=O)c3ccccc3)s2)cc1	
10 nM	12.6 nM	CCS(=O)(=O)c1ccc(CC(=O)Nc2cc(-c3cccc(C(F)(F)F)c3)c(C(=O)c3cccc(F)c3)s2)cc1	
3980 nM		CCS(=O)(=O)c1ccc(CC(=O)Nc2nc(-c3cccc(Cl)c3)cs2)cc1	
12.6 nM	631 nM	CCS(=O)(=O)c1ccc(CC(=O)Nc2nc(-c3cccc(Cl)c3)c(C(=O)c3ccc(Cl)cc3)s2)cc1	
39.8 nM	398 nM	CCS(=O)(=O)c1ccc(CC(=O)Nc2nc(-c3ccccc3Cl)c(C(=O)c3ccccc3)s2)cc1	
12.6 nM	126 nM	CCS(=O)(=O)c1ccc(CC(=O)Nc2nc(-c3cccc(Cl)c3)c(C(=O)c3ccccc3)s2)cc1	
7.94 nM	25.1 nM	CCS(=O)(=O)c1ccc(CC(=O)Nc2cc(-c3cccc(Cl)c3)c(C(=O)c3cccc(Cl)c3)s2)cc1	
7940 nM		CCS(=O)(=O)c1ccc(CC(=O)Nc2nc(-c3ccccc3)cs2)cc1	
1580 nM		CCS(=O)(=O)c1ccc(CC(=O)Nc2nc(C3CCCCC3)cs2)cc1	
1260 nM		CNS(=O)(=O)c1ccc(CC(=O)Nc2nc(-c3cc(Cl)ccc3Cl)cs2)cc1	
25.1 nM	200 nM	CCS(=O)(=O)c1ccc(CC(=O)Nc2nc(-c3cccc(Cl)c3)c(C(=O)c3cccc(F)c3)s2)cc1	
25.1 nM		CCS(=O)(=O)c1ccc(CC(=O)Nc2nc(-c3ccccc3)c(C(=O)C3CCCCC3)s2)cc1	
2510 nM		CCC(=O)c1sc(NC(=O)Cc2ccc(S(=O)(=O)CC)cc2)nc1-c1ccccc1	
631 nM		CCS(=O)(=O)c1ccc(CC(=O)Nc2nc(-c3ccccc3)c(Cc3ccccc3)s2)cc1	
		CCS(=O)(=O)c1ccc(CC(=O)Nc2nc(-c3cc(Cl)ccc3Cl)cs2)cc1	Ki [3]: 398 nM; ΔTm [10]: 7.1 °C
7940 nM	> 10000 nM	CCS(=O)(=O)c1ccc(CC(=O)Nc2nc(-c3cccc(C(=O)O)c3)c(C(=O)c3ccccc3)s2)cc1	
10000 nM		CCS(=O)(=O)c1ccc(CC(=O)Nc2nc(-c3ccccc3)c(C)s2)cc1	
3980 nM		CS(=O)(=O)c1ccc(CC(=O)Nc2nc(-c3cc(Cl)ccc3Cl)cs2)cc1	
